Experimental data published in US9051351B2, “Hepatocyte growth factor mimics as therapeutic agents” (Washington State University, priority 2011, dated 2015).
Entries after “also recorded” stand apart in the source; their conditions may differ. Like-named read-outs stand apart in the source and are kept apart here. Where a SMILES comes first, the peptide text is derived from it. [ ]: non-standard residue; d: D form. The star is where a group is joined. Hexanoyl = CCCCCC(=O)*; Ahx = NCCCCCC(=O)O

Key:
c-Met receptor = assay: c-Met phosphorylation in acute adult hippocampal slices; format: cell-based, rat; conditions: 30 minutes
Text: Adult Sprague-Dawley rats (250 g+) obtained from Harlan Laboratories (Ca, USA) were anesthetized with isofluorane (Vet One™, MWI, Meridian, Id., USA) and decapitated. The brain was rapidly removed and placed into ice-chilled artificial cerebrospinal fluid (aCSF) for approximately 30 s. Both hemispheres were separated by a mid-saggital cut and both hippocampi removed. Slices were sectioned cross- and length-wise (400 μm) to ensure penetrability of the drug, using a Mcllwain tissue chopper (Brinkmann, Gomshall, UK) and transferred to a gassed (95% O2/5% CO2) incubation chamber containing aCSF for 90 minutes at room temperature. Slices were transferred to fresh tubes, aCSF was removed by careful suctioning and replaced with aCSF containing vehicle (aCSF+aCSF), 100 ng/ml with carrier free adult recombinant Hepatocyte Growth Factor (HGF) (R and D Systems, MN, USA) in aCSF, 10^−10 M Hinge (Harding lab), […], 10^−10 M Dihexa (Harding lab) in aCSF, 10^−12 M Dihexa in aCSF or 50 ng/ml HGF+10^−12 M Dihexa in aCSF for 30 minutes at 37° C. with gentle rocking. aCSF was removed and the slices were lysed using RIPA buffer (Upstate/Milipore, Billerica, Mass.) and inhibitor Cocktails I and II (Sigma, St. Louis, Mo.), sonicated on ice and clarified by centrifugation for 30 minutes, 13,000 rpm at 4° C. The supernatant was removed from the pellet and stored at −80° C. or processed immediately for gel electrophoresis.
Protein concentration of the samples was quantified using the BCA method (Pierce, Rockford, Ill.) following the manufacturers protocol. Samples were added to SDS-PAGE buffer and boiled for 10 min. before loading onto a 4-12% Bis-Tris pre-cast gel (Invitrogen, Carlsbad, Calif.) for electrophoresis. Proteins were transferred onto PVDF membranes (Bio Rad, Hercules, Calif.) and blocked with AquaBlock™ (New England Biolabs, Ipswich, Mass.) for 1 hour at room temperature (RT). Primary antibody incubation was done in AquaBlock™ with rabbit anti-Met and […] phospho-Met (Tyr1234/1235) (1:1000, Cell Signaling Technology, Danvers, Mass.) overnight at 4° C. Alternating washes were done with PBS and PBST. Secondary antibody (IRDye) (Rockland, Gilbertsville, Pa.) incubations were done in AquaBlock™ for one hour at RT. Blots were imaged using LI-COR Odyssey Infrared Imaging System (LI-COR Biosciences, Lincoln, Nebr.).

aged rats = assay: Morris water maze, aged rat model; format: in vivo; conditions: aged rats of mixed sex, Dihexa oral 2 mg/kg/day, 8 days
Method: Swim speed was determined from these values.
The aged rat study employed 24 month old rats of mixed sex. […] The guide was then sealed with a thick stainless steel wire.

[1] = Dihexa pharmacokinetics in rats (IV, intraperitoneal); format: in vivo, rat
Method: Ethics approval for animal experimentation was obtained from Washington State University.
Dihexa solutions were prepared by suspending dry stock dihexa in DMSO at 1 mg/mL and subsequent serial dilutions in 50% DMSO or HPLC grade water for the final concentrations specified. Stock dihexa is kept in powder form and stored at −20° C. Quality control (QC) samples were prepared by spiking fresh rat plasma with an appropriate dilution of dihexa for the final concentration of dihexa specified, keeping a 10:1 ratio of plasma to dihexa solution (final DMSO concentration 5%). The compounds, Nle^1-Ang-IV and Nle-YI-(6) aminohexanoic amide, molecules very similar in structure and properties to dihexa, were used as internal standards and were prepared the same way.
The proteins present in the plasma samples were precipitated using three volumes of ice-cold acetonitrile. Internal standards were then added and the samples were vortexed for approximately 10 seconds. Samples were then centrifuged at 5000 RPM for 5 minutes. The supernatants were transferred to new tubes and stored until use at −20° C. Samples were then concentrated to a volume of approximately 100 ul. 200 ul HPLC grade water was added to each sample and the samples were transferred to autosampler vials.
Male Sprague Dawley rats were catheterized as described in the Animals and Surgical Procedures section. […] The typical injection volume was 200 μL yielding an initial estimated DMSO concentration in blood of 0.46%. After dosing, blood samples were collected as described in Table 7.
The blood samples were collected into polypropylene microcentrifuge tubes and cooled on ice for not more than 1 hour. The samples were centrifuged at 5000 RPM for 7 minutes and 80 μL plasma were transferred into previously prepared tubes containing 240 μL ice-cold acetonitrile. The samples were vortexed vigorously for 30 seconds and held on ice. 100 μg/mL Nle-YI-(6) aminohexanoic amide in 10 μL was used as an internal standard and added to each sample on ice.
10 μL of each serial dilution was then added to 90 μL of blank plasma for final concentrations of 0.01, 0.02, 0.05, 0.1, 0.2, 1, 10, 20, 50 and 100 μg/mL. 80 μL of each plasma sample was transferred to previously prepared tubes containing 240 μL ice-cold acetonitrile and vortexed vigorously. 10 μL containing 100 μg/mL Nle-YI-(6) aminohexanoic amide as an internal standard, was added to each sample on ice. The standard curve plasma samples were then stored at −20° C. and further processed alongside the pharmacokinetic study samples according to the method described above.
The analytical column that was used was n C18 (100 mm×2.1 mm). The mobile phase consisted of HPLC grade acetonitrile and water with 0.1% acetic acid. […] For MS analysis, a positive ion mode (SIM) was used to monitor the m/z of dihexa at […] (dihexa with the addition of a sodium adduct) and the m/z of Nle-YI-(6) aminohexanoic amide and Nle^1-AngIV (internal standards) at 513 and 541, respectively (both with sodium adducts). Samples were introduced using the autosampler and the injection volume was 50 ul. For the microsomal study, the m/z of verapamil was 455, the m/z of piroxicam was 332, and the m/z of 7-ethoxycoumarin was 191.
Pharmacokinetic analysis was performed using data from individual rats from which the mean and standard error of the mean (SEM) were calculated for each group.

[2] = Blood-brain barrier penetrability study; format: in vivo, rat; conditions: carotid infusion, 30 minutes
Method: To evaluate the of ability dihexa to penetrate the BBB and accumulate in the brain rats were fitted with carotid cannulas and infused with 10 μCi of ^3H-dihexa and 2 μCi of ^14C inulin, a vascular space marker, in 100 μL of isotonic saline. Thirty minutes after infusion, brains were removed and dissected and blood samples taken. After solubilization, ^3H and ^14C were quantified by dual window scintillation counting to determine the amount of dihexa and inulin in brain and blood samples. The ratio of dihexa/inulin in blood was then used to account for any blood contamination in the various brain regions.

[3] = male, Sprague-Dawley, rat, plasma, IV 10 mg/kg, rats, Mean ± SEM

For `CCCCCC(=O)N[C@@H](Cc1ccc(O)cc1)C(=O)N[C@H](C(=O)NCCCCCC(N)=O)[C@@H](C)CC` [Dihexa, N-hexanoic-Tyr-Ile-(6)-aminohexanoic amide] (Hexanoyl-Tyr-Ile-[Ahx]-NH2), the “c-Met phosphorylation vs vehicle (aCSF)” value (c-Met receptor; saturating doses: HGF 100 ng/ml, Dihexa 10^−10 M) was “increased c-Met phosphorylation; also recorded: effectively augment c-Met phosphorylation”, the “c-Met phosphorylation vs vehicle (aCSF)” value (c-Met receptor; sub-threshold doses: HGF 50 ng/ml, Dihexa 10^−12 M) was “not statistically different from control treated slices; also recorded: did not significantly increase c-Met receptor phosphorylation” and the “latency to find the pedestal in the water maze” value (aged rats) was “preformed significantly better in the water maze than untreated rats; also recorded: performed significantly better than untreated controls”. The “latency to find the pedestal in the water maze” value (aged rats; listed as dihexa) was “significantly improved performance; also recorded: significantly different than that of the non-treated rats”, the Cp0 ([1]; IV 10 mg/kg, rats, Mean ± SEM) was 87.3 ± 31.9 µg/mL and the KE ([1]; IV 10 mg/kg, rats, Mean ± SEM) was 0.00007 ± 0.00004 min⁻¹. The half-life ([1]; male, Sprague-Dawley, rat, plasma, ip, 20 mg/kg, delivered intraperitoneally, Mean+/−SEM, N=4, read-out: half-life (t1/2) (converted)) was 8.83 days, the half-life ([1]; male, Sprague-Dawley, rat, plasma, iv, 10 mg/kg, IV 10 mg/kg, rats, Mean ± SEM, read-out: t½) was 12.7 ± 5.41 days and the half-life ([1]; male, Sprague-Dawley, rat, plasma, iv, 10 mg/kg, IV administration 10 mg/kg, rats, read-out: half-life (t1/2) (converted)) was 12.7 days. For the same compound, the Vd [1, 3] was 54.4 ± 14.8 L/kg, the clearance [1, 3] was 2.6 ± 0.7 mL/min/kg and the AUC(0-inf) ([1]; male, Sprague-Dawley, rat, plasma, IV 10 mg/kg, rats, Mean ± SEM, N = 3) was 74500 ng·h/mL. For the same compound, the “average 3H/14C for blood” value [2] was 1687 and the “concentration of 3H-dihexa in brain regions (3H/14C ratio vs blood)” value ([2]; 14C-inulin vascular marker) was “all the brain regions examined avidly concentrated dihexa”.
